Results as given in a melting point compilation (Tetko et al.; mined from patent text by program, amines drawn as free bases though some values may be those of a salt).

melting point | SMILES
208 °C | Cn1c(C(F)(F)F)nn(-c2cc(O)c(C#N)cc2F)c1=O
127 to 129 °C | CCS(=O)(=O)N(CCCCC(N)=O)C1CC(C)(C)Oc2ccc(C)cc21 (stereo not given)
128 to 129 °C | O=C(c1ccc(Cl)cc1)c1ccc(NCC2CO2)cc1 (stereo not given)
199 to 202 °C | CC(C)OC(=O)C1=C(c2cn(C)c3ccccc23)C(=O)NC1=O
122 to 124 °C | CC(=O)OC1CCC2(C)C(CCC3=C4C(=O)CC(C(C)CCCN(C)C)C4(C)CCC32)C1 (stereo not given)
153 to 154 °C | COc1ccc(-c2c(Cl)c(CNS(=O)(=O)c3ccccc3)nc3sc4c(c23)CCN(Cc2ccccc2)C4)cc1OC
96 °C | CCCc1nc(C(=O)CC)c(C#N)n1C(c1ccccc1)(c1ccccc1)c1ccccc1
169 to 171 °C | Nc1ccc(C(=O)O)c2ccccc12
126 to 128 °C | CCOC(=O)C1=C(C)NC(c2cscn2)=NC1c1ccccc1F (stereo not given)
88 to 90 °C | CN1CCN(c2ccc(F)cc2C=C2CCCN(CCc3ccc(Cl)cc3)C2=O)CC1
265 °C | Cc1c(C(=O)Nc2ccc(N3CCN(c4ccc(Cl)cc4)CC3)c(C#N)c2)cnn1-c1ccc(Cl)cc1
89 to 90 °C | COc1cc(N2CCN(Cc3ccc(CNC(C)=O)cc3)CC2)nc(OC)n1
108 °C | O=C(O)CCNC(=O)C(=Cc1ccc(C(F)(F)F)cc1)CS
105 to 108 °C | CCOC(=O)c1ccc(N(CCO)C(=O)Nc2ccc(C3CCN(C(=O)C(F)(F)F)CC3)cc2)cc1
> 280 °C | CC(C)(C)c1ccc(C(=O)n2c3cc(O)c(O)cc3c3c(Br)cc(O)c(O)c32)cc1
207 to 210 °C | O=C(COc1ccc(C(=O)C=CC(=O)N2CCCCC2)c(O)c1)Nc1nc2ccccc2s1
181 to 183 °C | Cc1sc(C(=O)NCc2ccc3c(c2)OCO3)cc1[N+](=O)[O-]
194 to 195 °C | O=C1CC(c2ccc(O)cc2)Cc2ccccc21 (stereo not given)
165 °C | CC(=O)OC1CSC(Oc2ccc(-c3cnoc3C)nc2)C(OC(C)=O)C1OC(C)=O (stereo not given)

melting point | SMILES
159 to 161 °C | COC(=O)[C@H]1C[C@H](NC(=O)Oc2ccccc2)c2c(Cl)cc(Cl)cc2N1 (relative stereo)
158 to 160 °C | Nc1ncccc1C(=O)NCC1CCN(C[C@H]2COc3ccc(Br)cc3O2)CC1
137 to 144 °C | O=C(OCC1OC(n2cc(F)c(=O)[nH]c2=O)C(O)C1O)C1CCCN1C(=O)OCc1ccccc1 (stereo not given)
107 to 109 °C | O=C(CNS(=O)(=O)c1ccc2ccccc2c1)NCCNC(=O)C1CCN(c2ccncc2)CC1
159 to 162 °C | COc1cccc(COc2ccc(-c3cccc(NC(Cc4ccccc4)C(=O)O)c3)cc2)c1 (stereo not given)
93 to 94 °C | O=CN1CC2CCCc3cccc1c32 (stereo not given)
144 to 147 °C | COC(=O)C(=O)c1nsc(NC(=O)OCc2ccccc2)n1
178 to 179 °C | O=C(NCCCCCCc1ccc(-c2ccc(=O)[nH]n2)cc1)c1cccnc1
99 to 100 °C | OCC(O)(Cn1cncn1)c1ccc(F)cc1F (stereo not given)
97 to 98 °C | COc1c(C)cc(C)cc1C(=O)O
148 to 149 °C | CCn1ncc2nc(C(=O)O)c(C)nc21
285 to 287 °C | O=C1CN(c2ccccc2)C(=O)C1c1ccccc1 (stereo not given)
224 to 226 °C | Cc1cc(NC(=O)NC(=O)c2ccccc2Cl)cc(C)c1Oc1ccc(Cl)c2c1CCCC2
289 to 290 °C | NC(=O)c1cc2cccc(NC(=O)c3cccs3)c2[nH]1
75 to 86 °C | CCCN1CCC(Cc2ccc3c(c2)c(Cc2ccc(C(=O)O)cc2OC)cn3CCC)C1=O (stereo not given)
190 °C | O=C1C=CC2(C=C1)N=C(N1CCN(Cc3ccccc3)CC1)C=C2c1ccccc1
152 to 154 °C | NCCC(O)C(C(=O)O)N1CCC1=O (stereo not given)
105 to 110 °C | O=C(C1=NN(c2ccc(Cl)cc2Cl)C(c2ccc(Cl)cc2)C1)N1CCCCC1 (stereo not given)
186 to 187 °C | Nc1ccc(C(=O)c2ccccn2)cc1[N+](=O)[O-]

melting point | SMILES
124 to 125 °C | CC(C)Oc1ccc([N+](=O)[O-])cc1C(=O)O
89 to 92 °C | CC(C)(C)NC(=O)C(C)(C)N(OC(c1ccccc1)c1ccccc1)C(C)(C)C
70.5 to 72 °C | Oc1cccc2c1CC=CC2
91 to 95 °C | COc1cc(N)c(Cl)cc1C(=O)NCC1CCN(CCCCCCOCc2ccccc2)CC1
202 to 205 °C | Nc1cc(Cl)cc([N+](=O)[O-])c1C(=O)O
275 to 276 °C | O=C1Nc2ccc([N+](=O)[O-])cc2C2(c3ccccc3)OCCN12 (stereo not given)
43 to 46 °C | CCCOc1ccc(F)cc1C(=O)C=CN(C)C
42 to 43 °C | O=C(c1ccccc1)c1ccc(OCCCCBr)cc1
168 to 170 °C | O=C(O)c1cccc(NC(=O)C(CS)Cc2ccc(F)cc2F)c1 (stereo not given)
104 to 107 °C | Cc1nc[nH]c1CSCCNC1=NC(=O)C(Cc2ccccc2)N1 (stereo not given)
145 to 160 °C | CNC(=O)c1cccc(Cl)c1Nc1nc(Nc2ccc3c(c2)CCCC(=O)N3C)ncc1Cl
155 to 157 °C | BrCC(Br)c1ccc(C(Br)CBr)cc1 (stereo not given)
96 to 99 °C | Brc1c[nH]c(CN2CCCC2)c1
87 to 90 °C | COc1ccccc1N1CCN(Cc2ccc(CC(=O)O)cc2)CC1
155 to 156 °C | CNC(=O)c1cccc(NC(=O)Cc2ccc(F)cc2)c1
149 to 150 °C | Cc1c(CO)oc2ccc([N+](=O)[O-])cc12
155 to 158 °C | CC(CC(=O)Nc1c(Cl)ccc2nc(N3CCC(NCCCO)C3)ccc12)c1ccccc1 (stereo not given)
80 to 105 °C | Nc1cccc(-c2ccc(CCN3CCN(CCc4ccccc4)CC3)c3ccccc23)n1
126 to 127 °C | O=C1NC(=O)C(Cc2ccc(S(=O)(=O)CCCc3ccccc3)cc2)S1 (stereo not given)

The remaining lines, values behind:

SMILES | melting point
Oc1ccc2nc(-c3ccc(O)c(Cl)c3)oc2c1 | 254 to 256 °C
Clc1cccc(-c2nnnn2Cc2cscn2)c1Cl | 153 to 154 °C
COc1ccc(Oc2cccc3ncnc(NC(=O)Nc4cccc(Br)c4)c23)cc1 | 249 to 251 °C
C=CCn1c(Nc2cc(C(F)(F)F)ccc2C(F)(F)F)nc(C(F)(F)F)cc1=O | 116 to 118 °C
Cc1ccc2c(Cl)cc(Cl)c(OCC#N)c2n1 | 157 to 158 °C
CCS(=O)c1nc(-c2ccccc2)c(-c2ccccc2)o1 (stereo not given) | 133 to 134 °C
COc1cc(C=Cc2ccc(Cl)nn2)cc(OC)c1OC | 162 to 164 °C
O=CC(=Cc1ccccc1)c1ccc(F)cc1 | 87 to 94 °C
OCCCc1cnoc1-c1ccc(OC(F)(F)F)cc1 | 50 to 51 °C
COc1ccc2c3cc(C(=O)N4CCCCC4)ccc3n(CC3CCCCC3)c2c1 | 91 to 92 °C
Nc1cc(Cl)c(Cl)c(Br)c1N | 128 to 129 °C
Clc1ccc2nc(-c3ccccc3)c(-c3ccnnc3)n2n1 | 200 to 207 °C
CCC(C)(C)c1ccc(Oc2ccc(C(=O)c3ccc(Oc4ccc(C(C)(C)CC)cc4C(C)(C)CC)cc3)cc2)c(C(C)(C)CC)c1 | 54 to 56 °C
[N-]=[N+]=NC(=O)c1ccc(-c2ccc(C(F)(F)F)cc2)s1 | 97 °C
COc1ccc2c(n1)C1(CO2)C(=O)Nc2cccc(Br)c21 (stereo not given) | 265 to 268 °C
CCCN(CCC)CCc1ccc(O)c(N)c1 | 127 to 151 °C
CC(C)(CO)Cc1ccc(-c2ccc(CC(C)(C)CO)cc2)cc1 | 168 to 170 °C
CCN(CC)c1cc(C)nc(Oc2c(C)cc(Cl)cc2C)c1C | 184 to 185 °C
C=Cc1ccc(-c2ccc(OC(C)CCCCCC)cc2)cc1 (stereo not given) | 80.6 °C
CS(=O)(=O)ON=C(Cl)c1ccc(Cl)c(Cl)c1 | 73 to 75 °C
COc1cc(C2c3cc4c(cc3C(NC3=CC(=O)N(Cc5ccc(F)cc5)C3=O)C3COC(=O)C23)OCO4)cc(OC)c1O (stereo not given) | 214 to 216 °C
COc1ccc2c(c1)OCC(Cc1cccnc1)C2=O (stereo not given) | 95 to 99 °C

SMILES | melting point
FC(F)(F)c1cccc(Nc2nccc(-c3cccnc3)n2)c1 | 170 to 171 °C
CC1(C)CC(Cl)C(=Cc2ccc(F)cc2)C1=O (stereo not given) | 69 °C
CCCCCCCCCCCCc1cc(CO)on1 | 61 to 63 °C
Cc1cc(S(=O)(=O)c2cc(C)c(O)c(C3CCCCC3)c2)cc(C2CCCCC2)c1O | 264 to 265 °C
N#Cc1c(Sc2ccccc2)cccc1[N+](=O)[O-] | 106 to 107 °C
COCOc1cc(CO)ccc1OCc1nc(-c2ccco2)oc1C | 92 to 93 °C
CC(NC(=O)C(F)c1cc(F)cc(F)c1)C(=O)NC1N=C(c2ccccc2)c2ccccc2N(C)C1=O (stereo not given) | 119 to 120 °C
COc1ccc(-c2cc(=Nc3c(C)cc(C)cc3C)n(C)c3nncn23)cc1OC | 125 to 130 °C
Nc1c(Br)cc(N=C2NCCN2)cc1Br | 152 to 153 °C
Cc1cc(C#N)nc(-c2ccc([N+](=O)[O-])cc2)c1 | 146 to 156 °C
O=c1[nH]cnc(C(F)(F)F)c1Cl | 191 to 192 °C
CCn1c2c(c3ccccc31)=CC(=C1c3ccccc3-c3ccccc31)CC=2 | 172 °C
CCc1c(Cc2cc(OC)c(OC)c(OC)c2)[nH]c(=O)c(CC(C)C)[n+]1[O-] | 126 to 127 °C
CN(C)C1CCN(C2CCN(c3ncc4ncnc(Nc5ccc(F)c(Cl)c5)c4n3)CC2)CC1 | 160 to 165 °C
CC(=O)N(O)Cc1ccccc1Nc1c(Cl)ccc(C)c1Cl | 155 to 156 °C
N#CSc1cnn(-c2c(Cl)cc(C(F)(F)F)cc2Cl)c1N | 137 °C
O=c1[nH]cnc2ccc(S(=O)(=O)Cl)cc12 | > 400 °C
C(=C\c1cc(/C=C/c2ccc3cc[nH]c3c2)[nH]n1)/c1ccc2cc[nH]c2c1 | 289 to 291 °C
CC1CCC(Nc2nccc(Oc3ccc(NC(=O)c4cc(F)cc(N5CCCCC5)c4)c4ccccc34)n2)CC1 (stereo not given) | 101 to 102 °C
Fc1ccc(-c2ncn(CCCN3CCOCC3)c2-c2ccncc2)cc1 | 149 to 150 °C
O=C1SC(Cc2ccc(OCCn3ccc4ccccc43)cc2)C(=O)N1C(c1ccccc1)(c1ccccc1)c1ccccc1 (stereo not given) | 63.5 to 65.9 °C
